According to ChEMBL document CHEMBL5500378, “Discovery of 4-benzylpiperazinequinoline BChE inhibitor that suppresses neuroinflammation for the treatment of Alzheimer's disease” (Eur J Med Chem, 2024):

Columns and labels:
Cholinesterase [1] = biological target: Cholinesterase (Equus caballus, UniProt P81908); experiment: Inhibition of equine serum BChE using BTC as substrate incubated for 2 mins by Ellman's method; assay type: cell-free
Cholinesterase [2] = biological target: T1, Cholinesterase (Homo sapiens, UniProt P06276); experiment: Inhibition of human BChE using BTC as substrate incubated for 2 mins by Ellman's method
T1 sequence (P06276 whole entry): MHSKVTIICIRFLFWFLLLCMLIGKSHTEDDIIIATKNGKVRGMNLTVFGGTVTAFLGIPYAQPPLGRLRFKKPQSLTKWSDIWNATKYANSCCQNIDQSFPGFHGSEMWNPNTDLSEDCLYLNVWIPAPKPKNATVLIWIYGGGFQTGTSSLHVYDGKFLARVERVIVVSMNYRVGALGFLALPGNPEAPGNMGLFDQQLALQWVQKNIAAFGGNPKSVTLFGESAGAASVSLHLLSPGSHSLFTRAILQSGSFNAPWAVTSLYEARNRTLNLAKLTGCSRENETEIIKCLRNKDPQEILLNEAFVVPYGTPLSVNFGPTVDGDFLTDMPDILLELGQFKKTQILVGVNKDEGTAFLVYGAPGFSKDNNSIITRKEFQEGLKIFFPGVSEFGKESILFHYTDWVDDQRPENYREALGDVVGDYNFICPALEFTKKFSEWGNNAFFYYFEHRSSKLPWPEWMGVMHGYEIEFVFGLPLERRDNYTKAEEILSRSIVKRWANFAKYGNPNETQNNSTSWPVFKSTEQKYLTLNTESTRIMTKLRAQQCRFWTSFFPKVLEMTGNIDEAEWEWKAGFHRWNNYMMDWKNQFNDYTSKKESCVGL

[3] = biological target: Acetylcholinesterase (Electrophorus electricus) (UniProt O42275); experiment: Inhibition of electric eel AChE using ATC as substrate at 10 uM incubated for 2 mins by Ellman's method relative to control
Chain of Acetylcholinesterase (Electrophorus electricus) (O42275 24-633 limits assumed): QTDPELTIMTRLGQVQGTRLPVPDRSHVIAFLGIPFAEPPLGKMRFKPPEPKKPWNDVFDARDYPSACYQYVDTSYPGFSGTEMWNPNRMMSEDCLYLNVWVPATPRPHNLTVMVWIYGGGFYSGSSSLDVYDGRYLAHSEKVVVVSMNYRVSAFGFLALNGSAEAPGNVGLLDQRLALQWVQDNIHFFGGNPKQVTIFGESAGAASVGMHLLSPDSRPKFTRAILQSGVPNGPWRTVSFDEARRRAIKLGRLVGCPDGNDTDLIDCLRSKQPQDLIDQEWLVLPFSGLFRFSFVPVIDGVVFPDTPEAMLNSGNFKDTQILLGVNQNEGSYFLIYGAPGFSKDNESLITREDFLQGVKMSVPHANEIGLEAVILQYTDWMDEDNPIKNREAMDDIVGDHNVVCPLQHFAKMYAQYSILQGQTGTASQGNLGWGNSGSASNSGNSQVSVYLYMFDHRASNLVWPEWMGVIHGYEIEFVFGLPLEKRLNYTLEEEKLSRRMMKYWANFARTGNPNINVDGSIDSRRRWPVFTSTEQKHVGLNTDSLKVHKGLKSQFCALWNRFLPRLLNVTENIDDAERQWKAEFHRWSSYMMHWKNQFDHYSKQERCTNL

Acetylcholinesterase = Acetylcholinesterase (Electrophorus electricus, UniProt O42275); experiment: Inhibition of electric eel AChE using ATC as substrate incubated for 2 mins by Ellman's method
Chain of Acetylcholinesterase (O42275 whole entry): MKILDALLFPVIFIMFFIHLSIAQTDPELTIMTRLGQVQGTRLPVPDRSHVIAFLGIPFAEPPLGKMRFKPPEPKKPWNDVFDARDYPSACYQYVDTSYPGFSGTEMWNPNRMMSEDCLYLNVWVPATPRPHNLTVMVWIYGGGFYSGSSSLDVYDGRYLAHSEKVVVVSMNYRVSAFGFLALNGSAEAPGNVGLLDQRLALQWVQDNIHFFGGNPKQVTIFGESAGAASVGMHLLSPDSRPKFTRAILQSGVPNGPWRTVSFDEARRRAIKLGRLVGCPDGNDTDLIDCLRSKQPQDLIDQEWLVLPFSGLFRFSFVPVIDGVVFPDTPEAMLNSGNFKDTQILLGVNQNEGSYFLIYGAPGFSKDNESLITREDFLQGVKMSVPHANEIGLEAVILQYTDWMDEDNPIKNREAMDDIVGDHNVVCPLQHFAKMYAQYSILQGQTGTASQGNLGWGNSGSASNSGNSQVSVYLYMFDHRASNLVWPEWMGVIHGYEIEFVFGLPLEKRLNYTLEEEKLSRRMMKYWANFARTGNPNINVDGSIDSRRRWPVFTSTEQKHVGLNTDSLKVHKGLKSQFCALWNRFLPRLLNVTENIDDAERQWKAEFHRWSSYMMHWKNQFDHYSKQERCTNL

Cholinesterase [4] = biological target: T1, Cholinesterase; experiment: Inhibition of human BChE using BTC as substrate at 10 uM incubated for 2 mins by Ellman's method relative to control
[5] = tested on: Antioxidant response element; experiment: Induction of ARE in human HepG2-ARE-C8 cells incubated for 24 hrs by luciferase based assay; assay type: cell-based; settings: HepG2-ARE-C8, 24 h
[6] = Metabolic stability in human liver microsomes assessed as half life at 2 uM incubated for 60 mins by LC-MS/MS analysis; assay type: ADME, Microsome
[7] = biological target: Cholinesterase (Equus caballus) (UniProt P81908); experiment: Inhibition of equine serum BChE using BTC as substrate at 10 uM incubated for 2 mins by Ellman's method relative to control; assay type: cell-free
Chain of Cholinesterase (Equus caballus) (P81908 whole entry): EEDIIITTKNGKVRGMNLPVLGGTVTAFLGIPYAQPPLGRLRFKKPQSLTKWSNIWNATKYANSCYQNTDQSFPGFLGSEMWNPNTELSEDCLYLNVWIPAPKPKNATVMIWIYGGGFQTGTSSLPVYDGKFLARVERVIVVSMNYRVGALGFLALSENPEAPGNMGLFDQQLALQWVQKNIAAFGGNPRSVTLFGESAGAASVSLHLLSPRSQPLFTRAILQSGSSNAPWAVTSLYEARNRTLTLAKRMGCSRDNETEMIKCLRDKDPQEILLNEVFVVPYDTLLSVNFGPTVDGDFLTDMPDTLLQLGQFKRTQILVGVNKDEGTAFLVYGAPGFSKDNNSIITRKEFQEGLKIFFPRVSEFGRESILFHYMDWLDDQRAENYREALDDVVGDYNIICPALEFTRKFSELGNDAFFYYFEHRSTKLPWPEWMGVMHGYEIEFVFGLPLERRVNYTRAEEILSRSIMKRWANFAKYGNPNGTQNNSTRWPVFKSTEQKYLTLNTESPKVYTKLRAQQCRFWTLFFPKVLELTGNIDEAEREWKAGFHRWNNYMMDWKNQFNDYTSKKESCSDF

Chain of Cholinesterase (Equus caballus, UniProt P81908) (P81908 whole entry): as above

| SMILES | IC50 (Cholinesterase [1]) [nM] | IC50 (Cholinesterase [2]) [nM] | inhibition [3] [%] | IC50 (Acetylcholinesterase) [nM] | inhibition (Cholinesterase [4]) [%] | EC50 [5] [nM] | half-life at 2 µM [6] [min] | inhibition [7] [%] |
| --- | --- | --- | --- | --- | --- | --- | --- | --- |
| O=C(Nc1cnc2ccccc2c1N1CCN(Cc2ccccc2)CC1)c1ccc2ccccc2c1 | 600 | 12000 | < 50 | – | – | – | – | – |
| O=C(Nc1cnc2ccccc2c1N1CCN(Cc2ccccc2)CC1)C1CCCC1 | 15100 | – | – | 1340 | < 50 | – | – | – |
| CCCCCc1ccc(C(=O)Nc2cnc3ccccc3c2N2CCN(Cc3ccccc3)CC2)cc1 | 170 | 1590 | < 50 | – | – | – | – | – |
| CC(C)c1ccc(C(=O)Nc2cnc3ccccc3c2N2CCN(Cc3ccccc3)CC2)cc1 | 1180 | – | < 50 | – | < 50 | – | – | – |
| CC(C)(C)c1cc(O)ccc1O [E319] | – | – | – | – | – | 25600 | – | – |
| Cc1ccc(CC(=O)Nc2cnc3ccccc3c2N2CCN(Cc3ccccc3)CC2)cc1 | 4730 | – | < 50 | – | < 50 | – | – | – |
| Cc1ccc(C(=O)Nc2cnc3ccccc3c2N2CCN(Cc3ccccc3)CC2)c(C)c1 | 400 | 3520 | – | 3770 | – | – | – | – |
| O=C(Nc1cnc2ccccc2c1N1CCN(Cc2ccccc2)CC1)c1ccc(F)cc1 | 3310 | – | < 50 | – | < 50 | – | – | – |
| O=C(Cc1ccc(Cl)cc1)Nc1cnc2ccccc2c1N1CCN(Cc2ccccc2)CC1 | 960 | – | < 50 | – | < 50 | – | – | – |
| O=C(Nc1cnc2ccccc2c1N1CCN(Cc2ccccc2)CC1)c1ccc(Cl)cc1 | 400 | 4330 | < 50 | – | – | – | – | – |
| Cc1ccc(C(=O)Nc2cnc3ccccc3c2N2CCN(Cc3ccccc3)CC2)cc1 | 160 | 770 | < 50 | – | – | – | – | – |
| COc1ccccc1C(=O)Nc1cnc2ccccc2c1N1CCN(Cc2ccccc2)CC1 | 180 | 18400 | < 50 | – | – | – | – | – |
| O=C(Nc1cnc2ccccc2c1N1CCN(Cc2ccccc2)CC1)c1ccco1 | 420 | – | – | 4220 | < 50 | – | – | – |
| COc1ccc(C(=O)Nc2cnc3ccccc3c2N2CCN(Cc3ccccc3)CC2)cc1 | 180 | – | < 50 | – | < 50 | – | – | – |
| O=C(Nc1cnc2ccccc2c1N1CCN(Cc2ccccc2)CC1)c1ccccc1 | 3060 | 1680 | < 50 | – | – | – | 9.4 | – |
| O=C(Nc1cnc2ccccc2c1N1CCN(Cc2ccccc2)CC1)c1ccc(Cl)cc1Cl | 230 | 2410 | < 50 | – | – | – | – | – |
| O=C(Nc1cnc2ccccc2c1N1CCN(Cc2ccccc2)CC1)c1ccc([N+](=O)[O-])cc1 | 700 | – | < 50 | – | < 50 | – | – | – |
| Cc1cccc(C(=O)Nc2cnc3ccccc3c2N2CCN(Cc3ccccc3)CC2)c1 | 360 | – | < 50 | – | < 50 | – | – | – |
| Cc1ccccc1C(=O)Nc1cnc2ccccc2c1N1CCN(Cc2ccccc2)CC1 | 2240 | 1200 | < 50 | – | – | – | – | – |
| O=C(Nc1cnc2ccccc2c1N1CCN(Cc2ccccc2)CC1)c1ccccn1 | 280 | 2660 | < 50 | – | – | – | – | – |

| SMILES | IC50 (Cholinesterase [1]) [nM] | IC50 (Cholinesterase [2]) [nM] | inhibition [3] [%] | IC50 (Acetylcholinesterase) [nM] | inhibition (Cholinesterase [4]) [%] | EC50 [5] [nM] | half-life at 2 µM [6] [min] | inhibition [7] [%] |
| --- | --- | --- | --- | --- | --- | --- | --- | --- |
| COc1cccc(C(=O)Nc2cnc3ccccc3c2N2CCN(Cc3ccccc3)CC2)c1 | 300 | – | < 50 | – | < 50 | – | – | – |
| Cc1cccc(C(=O)Nc2cnc3ccccc3c2N2CCN(Cc3ccccc3)CC2)n1 | 3320 | – | < 50 | – | < 50 | – | – | – |
| O=C(CCc1ccccc1)Nc1cnc2ccccc2c1N1CCN(Cc2ccccc2)CC1 | 440 | 5390 | < 50 | – | – | – | – | – |
| O=C(Nc1cnc2ccccc2c1N1CCN(Cc2ccccc2)CC1)c1ccccc1Cl | 180 | 1130 | < 50 | – | – | – | – | – |
| CCc1ccc(C(=O)Nc2cnc3ccccc3c2N2CCN(Cc3ccccc3)CC2)cc1 | 2650 | – | < 50 | – | < 50 | – | – | – |
| O=C(Nc1cnc2ccccc2c1N1CCN(Cc2ccccc2)CC1)c1ccc([N+](=O)[O-])c([N+](=O)[O-])c1 | 9040 | – | < 50 | – | < 50 | – | – | – |
| O=C(Nc1cnc2ccccc2c1N1CCN(Cc2ccccc2)CC1)c1cccc2ccccc12 | 140 | 4130 | < 50 | – | – | – | – | – |
| O=C(Nc1cnc2ccccc2c1N1CCN(Cc2ccccc2)CC1)c1cccc([N+](=O)[O-])c1 | 1300 | – | < 50 | – | < 50 | – | – | – |
| O=C(Cc1cccc([N+](=O)[O-])c1)Nc1cnc2ccccc2c1N1CCN(Cc2ccccc2)CC1 | 6270 | – | < 50 | – | < 50 | – | – | – |
| O=C(Nc1cnc2ccccc2c1N1CCN(Cc2ccccc2)CC1)c1ccc(Br)cc1 | 1270 | – | < 50 | – | < 50 | – | – | – |
| CCCCc1ccc(C(=O)Nc2cnc3ccccc3c2N2CCN(Cc3ccccc3)CC2)cc1 | 130 | 550 | < 50 | – | – | – | – | – |
| O=C(Cc1ccccc1Cl)Nc1cnc2ccccc2c1N1CCN(Cc2ccccc2)CC1 | 770 | 1150 | < 50 | – | – | – | – | – |
| O=C(Nc1cnc2ccccc2c1N1CCN(Cc2ccccc2)CC1)c1ccc(F)cc1F | 460 | – | < 50 | – | < 50 | – | – | – |
| O=C(Nc1cnc2ccccc2c1N1CCN(Cc2ccccc2)CC1)c1cccc(Cl)c1 | 1580 | – | < 50 | – | < 50 | – | – | – |
| O=C(Nc1cnc2ccccc2c1N1CCN(Cc2ccccc2)CC1)c1cccs1 | 210 | – | – | 4040 | < 50 | – | – | – |
| O=C(Nc1cnc2ccccc2c1N1CCN(Cc2ccccc2)CC1)C1CCCO1 (centres undefined) | – | – | < 50 | – | < 50 | – | – | < 50 |
| O=C(Cc1ccccc1)Nc1cnc2ccccc2c1N1CCN(Cc2ccccc2)CC1 | 590 | 9230 | < 50 | – | – | – | – | – |
| Cc1cccc(CC(=O)Nc2cnc3ccccc3c2N2CCN(Cc3ccccc3)CC2)c1 | 430 | 10700 | < 50 | – | – | – | – | – |
| O=C(Nc1cnc2ccccc2c1N1CCN(Cc2ccccc2)CC1)C1CCCCC1 | 11900 | – | – | 2020 | < 50 | – | – | – |
| N#Cc1ccc(C(=O)Nc2cnc3ccccc3c2N2CCN(Cc3ccccc3)CC2)cc1 | 7610 | – | < 50 | – | < 50 | – | – | – |
